Several values for one entry are separate records, joined by “and”; a condition that tells them apart may be missing. Equal values may be shown once.
Assays:
[1] = Residual solvent by gas chromatography (internal standard method); assay type: physicochemical; settings: Chinese Pharmacopoeia limit 0.5%
Method: […]; an appropriate amount of ethyl acetate was taken, weighed precisely, and N,N-dimethylformamide was added to prepare the solution containing 5 mg of ethyl acetate per 1 ml. 1 ml of the solution was accurately pipetted into a 10 ml volumetric flask, and 1 ml of the internal standard solution was precisely added, and diluted by adding N,N-dimethylformamide to the volume, and agitated to obtain the reference solution; 0.5 g of the chlorogenic acid crystal form prepared by Examples 1 and 2, and about 0.5 g of respective raw materials of each example, were taken and weighed precisely, then transferred to a 10 ml volumetric flask. 1 ml of the internal standard solution was added precisely, diluted with N,N-dimethylformamide to volume, and agitated, to obtain the testing solution. According to the gas chromatography method (the appendix V E of the second part of the Chinese Pharmacopoeia 2010), 30 m capillary column was used with 50% polyphenyl methylsiloxane as the stationary liquid, and its coating thickness was 1 μm. The column temperature was kept at 80° C. taking 1 μl of the reference solution and 1 μl of the testing solution were accurately taken, respectively, and injected into the gas chromatograph, to record the chromatogram. Calculating with the height ratio of peaks in accordance with internal standard method, the results are as follows: […]

[2] = Long-term stability test of chlorogenic acid crystal form; assay type: physicochemical
[3] = 0-48 months, 18±2° C., relative humidity 60±10%
[4] = 0 month, 18±2° C., relative humidity 60±10%
[5] = 3 months, 18±2° C., relative humidity 60±10%
[6] = 6 months, 18±2° C., relative humidity 60±10%
[7] = 9 months, 18±2° C., relative humidity 60±10%
[8] = 12 months, 18±2° C., relative humidity 60±10%
[9] = 18 months, 18±2° C., relative humidity 60±10%
[10] = 24 months, 18±2° C., relative humidity 60±10%
[11] = 36 months, 18±2° C., relative humidity 60±10%
[12] = 48 months, 18±2° C., relative humidity 60±10%

Which results are given for `O=C(/C=C/c1ccc(O)c(O)c1)O[C@@H]1C[C@](O)(C(=O)O)C[C@@H](O)[C@H]1O` [Example 1, 3-O-caffeoylquinnic acid]?
Residual solvent Ethyl acetate (%) ([1]; listed as Sample obtained in Example 1): 0.254%; Content of chlorogenic acid over the long-term stability test [2, 3]: above 98%; Stability (overall conclusion of long-term test) [2, 3]: good stability; Appearance [2, 4]: almost white; Content (%) [2, 4]: 99.50% and 99.56% and 99.49%; Loss on drying (%) [2, 4]: 2.32% and 2.31% and 2.29%; Related substances (%) Other 2 [2, 4]: 0.140% and 0.137% and 0.144%; Related substances (%) Other 3 [2, 4]: 0.205% and 0.214% and 0.218%; Related substances (%) Other 4 [2, 4]: 0.045% and 0.049% and 0.048%; Related substances In total (%) [2, 4]: 0.488% and 0.499% and 0.511%; Appearance [2, 5]: almost white; Content (%) [2, 5]: 99.47% and 99.41% and 99.43%; Loss on drying (%) [2, 5]: 2.30% and 2.31% and 2.29%; Related substances (%) Other 2 [2, 5]: 0.142% and 0.151% and 0.148%; Related substances (%) Other 3 [2, 5]: 0.230% and 0.237% and 0.228%; Related substances (%) Other 4 [2, 5]: 0.049% and 0.050% and 0.046%; Related substances In total (%) [2, 5]: 0.523% and 0.543% and 0.525%; Appearance [2, 6]: almost white; Content (%) [2, 6]: 99.44% and 99.38% and 99.42%; Loss on drying (%) [2, 6]: 2.31% and 2.29% and 2.28%; Related substances (%) Other 2 [2, 6]: 0.146% and 0.154% and 0.155%; Related substances (%) Other 3 [2, 6]: 0.234% and 0.240% and 0.231%; Related substances (%) Other 4 [2, 6]: 0.054% and 0.056% and 0.053%; Related substances In total (%) [2, 6]: 0.541% and 0.563% and 0.548%; Appearance [2, 7]: almost white; Content (%) [2, 7]: 99.38% and 99.30% and 99.33%; Loss on drying (%) [2, 7]: 2.32% and 2.31%; Related substances (%) Other 2 [2, 7]: 0.162% and 0.167% and 0.165%; Related substances (%) Other 3 [2, 7]: 0.255% and 0.261% and 0.252%; Related substances (%) Other 4 [2, 7]: 0.058% and 0.061% and 0.060%; Related substances In total (%) [2, 7]: 0.591% and 0.611% and 0.595%; Appearance [2, 8]: almost white; Content (%) [2, 8]: 99.32% and 99.27% and 99.23%; Loss on drying (%) [2, 8]: 2.28% and 2.31% and 2.29%; Related substances (%) Other 2 [2, 8]: 0.163% and 0.168% and 0.169%; Related substances (%) Other 3 [2, 8]: 0.260% and 0.264% and 0.265%; Related substances (%) Other 4 [2, 8]: 0.062% and 0.063%; Related substances In total (%) [2, 8]: 0.606% and 0.623% and 0.627%; Appearance [2, 9]: almost white; Content (%) [2, 9]: 99.18% and 99.26% and 99.24%; Loss on drying (%) [2, 9]: 2.30% and 2.29% and 2.28%; Related substances (%) Other 2 [2, 9]: 0.179% and 0.174%; Related substances (%) Other 3 [2, 9]: 0.279% and 0.270% and 0.272%; Related substances (%) Other 4 [2, 9]: 0.065% and 0.067%; Related substances In total (%) [2, 9]: 0.660% and 0.643% and 0.647%; Appearance [2, 10]: almost white; Content (%) [2, 10]: 99.17% and 99.10% and 99.14%; Loss on drying (%) [2, 10]: 2.32% and 2.30% and 2.31%; Related substances (%) Other 2 [2, 10]: 0.178% and 0.187% and 0.185%; Related substances (%) Other 3 [2, 10]: 0.278% and 0.292% and 0.286%; Related substances (%) Other 4 [2, 10]: 0.070% and 0.074% and 0.072%; Related substances In total (%) [2, 10]: 0.666% and 0.697% and 0.685%; Appearance [2, 11]: almost white; Content (%) [2, 11]: 99.13% and 99.05% and 99.02%; Loss on drying (%) [2, 11]: 2.32% and 2.31%; Related substances (%) Other 2 [2, 11]: 0.190% and 0.194% and 0.196%; Related substances (%) Other 3 [2, 11]: 0.299% and 0.301% and 0.302%; Related substances (%) Other 4 [2, 11]: 0.076% and 0.074% and 0.078%; Related substances In total (%) [2, 11]: 0.713% and 0.719% and 0.732%; Appearance [2, 12]: almost white; Content (%) [2, 12]: 98.85% and 98.74% and 98.80%; Loss on drying (%) [2, 12]: 2.34% and 2.38% and 2.36%; Related substances (%) Other 2 [2, 12]: 0.219% and 0.222% and 0.218%; Related substances (%) Other 3 [2, 12]: 0.303% and 0.309% and 0.306%; Related substances (%) Other 4 [2, 12]: 0.092% and 0.095% and 0.091%; Related substances In total (%) [2, 12]: 0.770% and 0.787% and 0.772%; Crystal form examination by microscope ([2]; at the end of 12, 24, 36 and 48 months, 18±2° C., relative humidity 60±10%): single lamellar crystal; Stability on storage ([2]; within 48 months, stored in the cool and dark place): does not change obviously

With `O=C(/C=C/c1ccc(O)c(O)c1)O[C@@H]1C[C@](O)(C(=O)O)C[C@@H](O)[C@H]1O` [Sample obtained in Example 2, 3-O-caffeoylquinnic acid] as the molecule, how does the “Residual solvent Ethyl acetate (%)” value [1] read?
The value was 0.252%.

With `O=C(/C=C/c1ccc(O)c(O)c1)O[C@@H]1C[C@](O)(C(=O)O)C[C@@H](O)[C@H]1O` [Raw material of Example 2, 3-O-caffeoylquinnic acid] as the molecule, how does the “Residual solvent Ethyl acetate (%)” value [1] read?
The value was 2.314%.

With `O=C(/C=C/c1ccc(O)c(O)c1)O[C@@H]1C[C@](O)(C(=O)O)C[C@@H](O)[C@H]1O` [Raw material of Example 1, 3-O-caffeoylquinnic acid] as the molecule, how does the “Residual solvent Ethyl acetate (%)” value [1] read?
The value was 1.764%.
